Reference: PubChem BioAssay (NCI)
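In this assay, cells in 96-well plates receive the compound at five concentrations for 48 hours. Endpoints are linearly interpolated between the surrounding concentrations. GI50 is the concentration that inhibits growth by half. TGI is the concentration that stops growth completely.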

The compounds below were run on MDA-MB-468 breast (assay: DTP human tumour cell line panel, 48 h).

SMILES | GI50 [nM] | TGI [nM]
COC(=O)/C=C/c1cc(OC)c2c(c1)[C@@H](C(=O)OC)[C@H](c1ccc(OC)c(OC)c1)O2 | 1710 | > 100000
Nc1ncnc2c1c(-c1ccc(Oc3ccccc3)cc1)nn2C[C@H]1SSC[C@H]1O | 211 | 627
COc1ccc(-c2nn(C(=O)c3cc(OC)c(OC)c(OC)c3)c3cc(N)ccc23)cc1 | < 14.1 | 190
COc1cc(/C=C2\CCCC3=C2N=C2SC=NN2C3c2cc(OC)c(OC)c(OC)c2)cc(OC)c1OC (stereo unspecified) | 2330 | 7520
Clc1ccc2c(NCCCNCc3ccc4c(c3)OCO4)ccnc2c1 | 2040 | 5130
COc1cc(Cl)c(C)cc1NC(=O)c1cc2ccccc2cc1O | 2760 | 9740
O=c1c(-c2nc3ccccc3[nH]2)cc2ccccc2n1Cc1cn(Cc2ccc(F)cc2)nn1 | 93.1 | 2780
NC(CSC(c1ccccc1)(c1ccccc1)c1ccc(Br)cc1)C(=O)O (stereo unspecified) | 116 | > 31600
CCCCCCOc1ccc(/C=N/Nc2cc(C)nc3ccc(Br)cc23)cc1 | 1700 | 3220
O=c1c(Br)ccc(Br)cc1Br | 830 | 2620
COc1cc(-c2nc3cc(Cl)c(Cl)cc3[nH]2)ccc1OCC(=O)N=Nc1c(O)[nH]c2ccccc12 | 250 | 685
Nc1nc(-c2ccccc2Cl)cc(-c2ccc(Cl)cc2Cl)n1 | 2180 | 8660
COc1ccc2c(c1)cn1c3ccc(OC)cc3[nH]c(=O)c21 | 63.5 | 1040
N[C@@H](Cc1ccc(N(CCCl)CCCl)cc1)C(=O)O | 3840 | 23700
COc1cc(Nc2nccc(-c3cnn4ncccc34)n2)cc(OC)c1 | 64.3 | 217
C=CCOc1ccc2c(c1)CC[C@@H]1[C@@H]2CC[C@]2(C)C(=O)/C(=N/O)C[C@@H]12 | 2180 | 10600
COc1ccc(S(=O)(=O)Nc2c(/C=C\c3cc(OC)c(OC)c(OC)c3)ccc(OC)c2O)cc1OC | 75.5 | 441

SMILES | GI50 [nM] | TGI [nM]
CCOc1ccc(NC2=C(Cl)C(=O)c3nc(C)ccc3C2=O)cc1 | 1490 | 2920
O=C1/C=C/[C@@H](O)[C@@H]2C[C@@H](O)C[C@H]2/C=C/CCCCO1 | 167 | 
CCc1cc(Cc2cc(CC)cc(C(C)(C)C)c2O)c(O)c(C(C)(C)C)c1 | 3540 | 13200
COc1cccc(-c2nn(C)c3sc(C(=O)NCCN4CCN(c5ccccc5F)CC4)cc23)c1 | 7810 | > 100000
C=C(C=O)[C@@H]1CC=C(C=O)CC1 | 2800 | > 100000
c1ccc(Oc2cnc3ccccc3n2)cc1 | 46400 | > 100000
Cc1nc(N(C)C)nc(-c2cccc(-c3ccn(CCN(C)C)n3)c2)c1C | 12100 | > 20000
CCOC(=O)C1=CN(Cc2ccccc2)C2ON=C(c3ccc(Cl)cc3)C2C1 (stereo unspecified) | 15500 | > 100000
CCOc1ccc(-n2cc(-c3ccc(N(C)C)cc3)[n+]3c2CCCCC3)cc1 | 42 | 2340
COc1ccc(/C=N/C2=C(C#N)C(c3ccccc3)c3ccc4ccccc4c3O2)cc1 (stereo unspecified) | 454 | 
CN(Cc1cccc(Cl)c1)c1ccc(CO)c(Cl)c1 | 57 | 217
Cn1cc(C2=C(c3cn(CCCN/C(N)=N\[N+](=O)[O-])c4ccccc34)C(=O)NC2=O)c2ccccc21 | 2090 | 9740
O=C1COCCN1c1ccc(NCc2cn(Cc3ccc(F)cc3)c3ccccc23)cc1 | 23.9 | 78.3
COc1cc(-c2cc(C(=O)N3CCN(C(=O)c4ccccc4NCc4cccs4)CC3)nc3cc(-c4ccccc4)nn23)cc(OC)c1OC | 2710 | 14000
Nc1c(S(=O)(=O)O)cc2c(c1Cl)C(=O)c1ccccc1C2=O | > 100000 | > 100000
CC/C(=C(/c1ccc(Cl)cc1)c1ccc(OCCCN(C)C)cc1)c1ccc(OC)cc1 | 1060 | 2260
CCCCCCCCCCCC(=O)[O][Sn]([CH2]CCC)([CH2]CCC)[CH2]CCC | 28 | 78.7
